{
  "source": "patent US20150133456A1",
  "about": "“FLUOROERGOLINE DERIVATIVES AND USES THEREOF” (MAP PHARMACEUTICALS, INC., priority 2012, published 2015)",
  "key": {"human 5-HT2B receptor [1]": {"biological_target": "T1, human 5-HT2B receptor (Homo sapiens, UniProt P41595)", "T1 construct": "host or cells: CHO-K1 coexpressing mitochondrial apoaequorin", "T1 sequence (P41595 whole entry)": "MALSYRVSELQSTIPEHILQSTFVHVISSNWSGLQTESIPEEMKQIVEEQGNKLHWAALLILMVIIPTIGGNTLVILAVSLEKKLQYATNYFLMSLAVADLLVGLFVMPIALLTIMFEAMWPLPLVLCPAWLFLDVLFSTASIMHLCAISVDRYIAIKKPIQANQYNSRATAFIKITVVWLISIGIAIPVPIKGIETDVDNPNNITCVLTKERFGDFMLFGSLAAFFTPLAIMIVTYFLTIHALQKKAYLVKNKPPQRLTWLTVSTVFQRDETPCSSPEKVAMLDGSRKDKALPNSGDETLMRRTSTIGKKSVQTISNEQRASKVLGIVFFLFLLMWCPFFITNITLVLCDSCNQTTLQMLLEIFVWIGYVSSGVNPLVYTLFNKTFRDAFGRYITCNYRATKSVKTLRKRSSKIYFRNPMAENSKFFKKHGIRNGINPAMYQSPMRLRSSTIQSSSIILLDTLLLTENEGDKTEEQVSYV", "test": "Aequorin assay, agonist activity at 5-HT2B", "assay_type": "cell-based", "details": "reference agonist; read-out: EC50, 5-HT2B agonism", "procedure": "Percentage activation values were determined for 2-CF3 dihydroergotamine at the 5-HT2B receptor."}, "[2]": {"test": "Metabolism in human liver microsomes", "details": "1 μM, 0.2 mg protein/mL, 0 to 60 minutes", "procedure": "Metabolism of dihydroergotamine (DHE) and 2-CF3 DHE was evaluated in human liver microsomes. DHE mesylate and 2-CF3 DHE mesylate (1 μM each) were incubated separately with human liver microsomes (0.2 mg protein/mL) in triplicate at 37° C. in 0.2 mL (final volume) incubation buffer (50 mM potassium phosphate buffer, pH 7.4, 3 mM MgCl2 and 1 mM EDTA, pH7.4) with or without cofactor, NADPH-generating system. The NADPH-generating system consisted of 1 mM NADP, pH 7.4, 5 mM glucose-6-phosphate, pH 7.4 and 1 unit/mL glucose-6-phosphate dehydrogenase. DHE was added to the incubation mixtures in water. 2-CF3-DHE was added to incubation mixtures in 50:50 (v:v) acetonitrile:water. A low level of acetonitrile in the incubation was maintained to avoid any solvent effects on enzyme activity (typically at 0.5% or lower). Reactions were initiated by the addition of the NADPH-generating system and were terminated at 0, 15, 30 and 60 minutes after initiation by the addition of […], of stop reagent (acetonitrile) containing two internal standards (4′-hydroxydiclofenac-d4 and 1′-hydroxymidazolam-d4, 200 and 50 ng/mL in the final stopped incubation, respectively). The samples were then centrifuged and the supernatant fractions were analyzed by LC/MS/MS to quantify the formation of 8′-OH-DHE (metabolite) in the DHE samples and DHE and 8′-OH-DHE in the 2-CF3-DHE samples."}, "D2 receptor": {"biological_target": "T2, D2 receptor (Homo sapiens, UniProt P14416)", "T2 construct": "expressed in transfected cells", "T2 sequence (P14416 whole entry)": "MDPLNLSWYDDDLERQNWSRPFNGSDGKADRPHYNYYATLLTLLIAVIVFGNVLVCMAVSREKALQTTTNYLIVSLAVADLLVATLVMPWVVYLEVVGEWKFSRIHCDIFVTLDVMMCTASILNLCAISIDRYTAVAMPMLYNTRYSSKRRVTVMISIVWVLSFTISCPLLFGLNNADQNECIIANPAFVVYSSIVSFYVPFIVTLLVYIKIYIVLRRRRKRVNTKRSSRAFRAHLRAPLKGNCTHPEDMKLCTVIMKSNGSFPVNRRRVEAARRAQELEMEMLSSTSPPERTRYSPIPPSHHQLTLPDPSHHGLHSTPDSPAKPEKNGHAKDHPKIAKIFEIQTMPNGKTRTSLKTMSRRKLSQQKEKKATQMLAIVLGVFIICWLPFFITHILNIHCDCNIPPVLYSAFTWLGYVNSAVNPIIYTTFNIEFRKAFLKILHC", "test": "Agonist activity at the D2 receptor", "assay_type": "cell-based", "details": "read-out: EC50, D2 receptor agonism", "procedure": "The assay was performed analogously to the assay described in Example 4."}, "human 5-HT2B receptor [3]": {"biological_target": "T1, human 5-HT2B receptor", "test": "Aequorin assay, antagonist activity at 5-HT2B", "assay_type": "cell-based", "details": "reference agonist at its EC80; read-out: IC50, 5-HT2B antagonism", "procedure": "Percentage inhibition values were determined for 2-CF3 dihydroergotamine on the 5-HT2B receptor."}},
  "data": [
    {"smiles": "CC(N)Cc1c[nH]c2ccc(O)cc12", "note": "(stereo not drawn) [α-methyl-5-HT, reference compound]", "values": [
      {"measurement": "EC50", "setting": "human 5-HT2B receptor [1]", "value": 1.01, "unit": "nM"}
    ]},
    {"smiles": "CN1C[C@H](C(=O)N[C@]2(C)O[C@@]3(O)[C@@H]4CCCN4C(=O)[C@H](Cc4ccccc4)N3C2=O)C[C@@H]2c3cccc4[nH]cc(c34)C[C@H]21", "note": "[dihydroergotamine, reference compound]", "values": [
      {"measurement": "metabolism by human liver microsomes in the presence of NADPH", "setting": "[2]", "value": "extensively metabolized"},
      {"measurement": "EC50", "setting": "D2 receptor", "value": 8.35, "unit": "nM"}
    ]},
    {"smiles": "Cc1cc(NC(=O)Nc2ccc3c(ccn3C)c2)sn1", "note": "[SB204741, reference compound]", "values": [
      {"measurement": "IC50", "setting": "human 5-HT2B receptor [3]", "value": 28.8, "unit": "nM"}
    ]}
  ]
}
